Activity calls are given as the source filed them. No cut-off for these calls is given here.
Legend:
[1] = tested on: Mus musculus; experiment: Narcotic agonist activity in sc dosed albino mouse assessed as protection against acetylcholine-induced writhing administered 20 mins prior to acetylcholine challenge measured for 2 mins; assay type: functional
[2] = tested on: Rattus norvegicus; experiment: Narcotic antagonist activity in sc dosed rat assessed as 50% inhibition of phenazocine-induced response; assay type: functional
[3] = tested on: Mus musculus; experiment: Narcotic agonist activity in albino mouse assessed as protection against acetylcholine-induced writhing at 25 mg/kg, sc administered 20 mins prior to acetylcholine challenge measured for 2 mins relative to control; assay type: functional; settings: route subcutaneous
[4] = tested on: Rattus norvegicus; experiment: Narcotic antagonist activity in rat assessed as inhibition of phenazocine-induced response at 80 mg/kg, sc; assay type: functional, organism-based; parameters: dose 80 mg/kg
[5] = tested on: Rattus norvegicus; experiment: Narcotic antagonist activity in rat assessed as inhibition of phenazocine-induced response at 80 mg/kg, sc relative to nalorphine; assay type: functional; parameters: scale not given: the % may be the effect or the level left; settings: route subcutaneous
[6] = Mus musculus, sc, read-out: ED50

Structure (SMILES) | AD50 [2] [mg/kg] | ED50 [1, 6] [mg/kg] | also measured
CC(C)(C)C(C)(O)CC[C@@H]1[C@H]2Cc3ccc(O)cc3[C@@]1(C)CCN2CC1CC1.CS(=O)(=O)O (single isomer, unassigned; isomer II) | 1.1 | – | ED50 [1]: 9 mg/kg
CO[C@@]12CC[C@@]3(C[C@@H]1[C@](C)(O)C(C)(C)C)[C@H]1Cc4ccc(O)c5c4[C@@]3(CCN1CC1CC1)[C@H]2O5 [BUPRENORPHINE] | 0.11 | – | –
CC(C)(O)CC[C@@H]1[C@H]2Cc3ccc(O)cc3[C@@]1(C)CCN2CC1CC1 | 0.046 | 16 | –
CCCC(C)(O)CC[C@@H]1[C@H]2Cc3ccc(O)cc3[C@@]1(C)CCN2CC1CC1.CS(=O)(=O)O (stereo not given in full) | 0.019 | 7.6 | –
CN1CC[C@]2(C)c3cc(O)ccc3C[C@@H]1[C@H]2CCC(C)(O)C(C)(C)C.CS(=O)(=O)O (stereo in doubt; 4e) | – | – | ED50 [1]: >75 mg/kg; Activity [3]: <50%
CCCC(C)(O)CC[C@@H]1[C@H]2Cc3ccc(O)cc3[C@@]1(C)CCN2C.CS(=O)(=O)O (stereo not given in full) | – | 2.6 | inhibition [4]: inactive
CC(C)(C)C(C)(O)CC[C@]1(C)[C@H]2Cc3ccc(O)cc3[C@@]1(C)CCN2CC1CC1.CS(=O)(=O)O (single isomer, unassigned; isomer II) | 0.71 | – | –
CN1CC[C@]2(C)c3cc(O)ccc3C[C@@H]1[C@@]2(C)CCC(C)(O)C(C)(C)C.CS(=O)(=O)O (mixture of isomers) | 0.33 | > 25 | Activity [3]: <50%; Activity [5]: 30%
C[C@H]1[C@H]2Cc3ccc(O)cc3[C@]1(C)CCN2CC1CC1 [CYCLAZOCINE] | 0.007 | 0.15 | –
C=CCN1CC[C@]23c4c5ccc(O)c4O[C@H]2[C@@H](O)C=C[C@H]3[C@H]1C5 [NALORPHINE] | 0.1 | – | –
CC(C)(O)CC[C@]1(C)[C@H]2Cc3ccc(O)cc3[C@@]1(C)CCN2CC1CC1.Cl | 0.006 | 4.5 | –
CC(C)(C)C(C)(O)CC[C@@H]1[C@H]2Cc3ccc(O)cc3[C@@]1(C)CCN2CC1CC1.CS(=O)(=O)O (single isomer, unassigned; isomer I) | 0.27 | – | ED50 [1]: >25 mg/kg; Activity [3]: <50%
CN1CC[C@]2(C)c3cc(O)ccc3C[C@@H]1[C@@]2(C)CCC(C)(O)C(C)(C)C (stereo not given in full) [listing 1 of 2 here] | – | > 25 | Activity [3]: <50%
CCC(C)(O)CC[C@@H]1[C@H]2Cc3ccc(O)cc3[C@@]1(C)CCN2CC1CC1.CS(=O)(=O)O (stereo not given in full) | 0.04 | 7.9 | –
CCCCC(C)(O)CC[C@@H]1[C@H]2Cc3ccc(O)cc3[C@@]1(C)CCN2C.CS(=O)(=O)O (stereo not given in full) | – | 2.5 | inhibition [4]: inactive
C[C@H]1[C@@H]2Cc3ccc(O)cc3[C@]1(C)CCN2C [METAZOCINE] | – | 0.54 | inhibition [4]: inactive
CN1CC[C@]2(C)c3cc(O)ccc3C[C@@H]1[C@H]2CCC(C)(O)C(C)(C)C.CS(=O)(=O)O (stereo in doubt; 4f) | – | – | ED50 [1]: >25 mg/kg
CC(C)(C)C(C)(O)CC[C@]1(C)[C@H]2Cc3ccc(O)cc3[C@@]1(C)CCN2CC1CC1.CS(=O)(=O)O (stereo in doubt; 4q) | 0.022 | – | Activity [3]: <50%
CN1CC[C@]2(C)c3cc(O)ccc3C[C@@H]1[C@H]2CCC(C)(C)O | – | 8.2 | inhibition [4]: inactive
CN1CC[C@]2(C)c3cc(O)ccc3C[C@@H]1[C@@]2(C)CCC(C)(O)C(C)(C)C (stereo not given in full) [listing 2 of 2 here] | – | – | inhibition [4]: inactive
CCCCC(C)(O)CC[C@@H]1[C@H]2Cc3ccc(O)cc3[C@@]1(C)CCN2CC1CC1.CS(=O)(=O)O (stereo not given in full) | 0.025 | 6.5 | –
CN1CC[C@]2(C)c3cc(O)ccc3C[C@@H]1[C@H]2CCC(C)(O)C(C)(C)C (stereo in doubt; 4f) | – | – | inhibition [4]: inactive
CCC(C)(O)CC[C@@H]1[C@H]2Cc3ccc(O)cc3[C@@]1(C)CCN2C.CS(=O)(=O)O (stereo not given in full) | – | 3.3 | inhibition [4]: inactive
CN1CC[C@]2(C)c3cc(O)ccc3C[C@@H]1[C@@]2(C)CCC(C)(C)O | 2.3 | 3.8 | –

— ChEMBL document CHEMBL3272106, “Synthesis and narcotic agonist-antagonist evaluation of some 2,6-methano-3-benzazocine-11 propanols. Analogues of the ring C bridged oripavine-7-mehtanols” (1977)
